Experimental data published in patent US11596696B2, “Combination therapy with an anti-CD25 antibody-drug conjugate” (ADC Therapeutics SA, priority 2017, dated 2023).

What was measured:
[1] = system: surface CD25 on KG-1 cells; test: Surface CD25 by flow cytometry (FACS) after Cytarabine (Example 5); type: cell-based; settings: CD25(+) KG-1 cells (low CD25) incubated with Cytarabine
Experimental: (§1) After incubation, two parameters were measured: the amount of surface CD25 (as determined by flow cytometry) and the in vitro cytotoxicity of the combinations (as determined by CellTiter-Glo® or MTS assays). Cytotoxic synergy was calculated by transforming the cell viability data into fraction affected, and calculating the combination index (Table 1) using the CalcuSyn analysis program.

[2] = system: surface CD25 on Karpas299 cell line; test: as above; type: cell-based; settings: Karpas299 cell line (high in CD25) incubated with Cytarabine
Experimental: as §1

[3] = system: CD25 surface protein on Karpas-299 cells; test: CD25 surface protein, antibodies bound per cell, QuantiBRITE-PE flow cytometry (Example 9); type: cell-based, human
Source text: (§2) Cells were then washed and run on a Fortessa X20 flow cytometer.

[4] = system: CD25 surface protein on KG-1 cells; test: as above; type: cell-based, human
Source text: as §2

[5] = system: IL2Ralpha (CD25) mRNA in KG-1 cells; test: CD25 mRNA expression by TaqMan qRT-PCR (Example 9); type: cell-based; settings: 30 nM Cytarabine
Experimental: (§3) Karpas-299, EOL-1 or KG-1 cells were incubated with 30 nM Cytarabine for 24 hours before mRNA was isolated and reverse-transcribed. cDNA was probed for IL2Ralpha (CD25) by TagMan qRT-PCR. Mean fold change in expression compared to the untreated control was calculated using the ddCT method using the reference gene abl-1. A time-course to measure expression change over 3-4 days was also done in Karpas-299 (high CD25 expressing) and KG-1 cells (low CD25 expressing) under the same conditions, only extending incubation time with Cytarabine.

[6] = system: IL2Ralpha (CD25) mRNA in Karpas-299 cells; test: CD25 mRNA expression by TaqMan qRT-PCR (Example 9); type: cell-based; settings: Karpas299 cells; 30 nM Cytarabine; over the 72 hour period
Experimental: as §3

[7] = system: surface CD25 on Karpas299 cell line; test: Surface CD25 by flow cytometry after decitabine (Example 6); type: cell-based; parameters: dose or concentration left out as unconfirmed; settings: in the presence of decitabine
Experimental: After incubation, two parameters were measured: the amount of surface CD25 (as determined by flow cytometry) and the in vitro cytotoxicity of the combinations (as determined by MTS assays).

[8] = system: advanced melanoma; settings: phase III; compared to the standard of care (temozolomide or dacarbazine); cited from earlier work

With `Nc1ccn([C@@H]2O[C@H](CO)C(O)[C@@H]2O)c(=O)n1` (stereo in doubt) [Cytarabine, 4-amino-1-[(2R,3S,4R,5R)-3,4-dihydroxy-5-(hydroxymethyl)oxolan-2-yl] pyrimidin-2-one] the “Change in surface CD25 levels (FACS analysis)” value [1] was “two-fold increase”, the “Change in surface CD25” value [2] was “No increase” and the “Mean number of CD25 antibodies bound per cell” value ([3]; Karpas299 cells treated with 30 nM Cytarabine 24 hours (untreated the same)) was roughly 60000 antibodies per cell. The “Effect on CD25 surface protein expression” value ([3]; Karpas299 cells, 30 nM Cytarabine, 24 hour period) was “little effect”, the “Mean number of CD25 antibodies bound per cell” value ([4]; KG-1 cells treated with 30 nM Cytarabine 24 hours (untreated ~200)) was roughly 400 antibodies per cell and the “Levels of CD25 surface expression” value ([4]; KG-1 cells, 30 nM Cytarabine, 24 hours) was “significantly increased”. For the same molecule, the “Increase in CD25 mRNA expression vs untreated control” value (shortened to “Increase in CD25 mRNA expression”) ([5]; after 24 hours incubation) was 2 fold, the “Increase in CD25 mRNA expression” value ([5]; after 48 hours incubation) was 4 fold and the “Increase in CD25 mRNA expression” value ([5]; after 96 hours incubation) was 3 fold. The “Effect on CD25 mRNA expression” value [6] was “little effect”.

In the case of `Nc1ncn([C@H]2C[C@H](O)[C@@H](CO)O2)c(=O)n1` [Decitabine, 4-Amino-1-(2-deoxy-β-D-erythro-pentofuranosyl)-1,3,5-triazin-2(1H)-one], the “Amount of CD25 on the cells” value [7] is reported as “no difference”.

For tremelimumab: anti-CTLA4 antibody, the “Overall survival of patients” value [8] is listed as “did not significantly increase the overall survival”.
